The target of one series is T1, H^+ --K^+ ATPase (Sus scrofa, UniProt P19156).
T1 construct: prepared from a gland portion of the gastric fundus of the gastiric mucosa of a fresh pig; from tissue; host or cells: gland portion of the gastric fundus mucosa, fresh pig
In words: H+-K+ ATPase activity inhibition. In kind it is biochemical. To be noted: pig gastric fundus gland H+-K+ ATPase; pH 7.40, 37° C., 30 min incubation; compound dissolved in methanol; read-out: inhibitory effect on H+-K+ ATPase activity, IC50. The method, then: H^+ --K^+ ATPase activity inhibition
(1) Preparation of H^+ --K^+ ATPase:
H^+ --K^+ ATPase was prepared from a gland portion of the gastric fundus of the gastiric mucosa of a fresh pig by the modification of a method of Saccomani et al., Biochem. and Biophys.
(2) Determination of H^+ --K^+ ATPase activity:
The compound of the present invention was incubated in various concentrations together with H^+ --K^+ ATPase and 10 μg/ml of protein in 40 mM of Tris-HCl having a pH value of 7.40 at 37° C. for 30 min. 15 mM of KCl was added thereto. 10 min after the addition, an ATPase reaction was initiated by addition of 3 mM of MgCl2 and ATP. 10 min after the initiation of the reaction, the amount of the released inorganic phosphoric acid was measured according to the method of Yoda and Hokin, Biochem. Biophys.
The test compound was dissolved in methanol prior to use.
The inhibitory effect was determined as follows. The measured value of the test compound was subtracted from the measured value of the control group to determine the difference in the measured values therebetween. The inhibitory effect was calculated as the percentage of the difference relative to the measured value of the control group. In the Table, the inhibitory effect was expressed in terms of IC50.

The conditions of series [1]: reported, prior art; cited from earlier work.

T1 sequence (P19156 2-1034 limits assumed): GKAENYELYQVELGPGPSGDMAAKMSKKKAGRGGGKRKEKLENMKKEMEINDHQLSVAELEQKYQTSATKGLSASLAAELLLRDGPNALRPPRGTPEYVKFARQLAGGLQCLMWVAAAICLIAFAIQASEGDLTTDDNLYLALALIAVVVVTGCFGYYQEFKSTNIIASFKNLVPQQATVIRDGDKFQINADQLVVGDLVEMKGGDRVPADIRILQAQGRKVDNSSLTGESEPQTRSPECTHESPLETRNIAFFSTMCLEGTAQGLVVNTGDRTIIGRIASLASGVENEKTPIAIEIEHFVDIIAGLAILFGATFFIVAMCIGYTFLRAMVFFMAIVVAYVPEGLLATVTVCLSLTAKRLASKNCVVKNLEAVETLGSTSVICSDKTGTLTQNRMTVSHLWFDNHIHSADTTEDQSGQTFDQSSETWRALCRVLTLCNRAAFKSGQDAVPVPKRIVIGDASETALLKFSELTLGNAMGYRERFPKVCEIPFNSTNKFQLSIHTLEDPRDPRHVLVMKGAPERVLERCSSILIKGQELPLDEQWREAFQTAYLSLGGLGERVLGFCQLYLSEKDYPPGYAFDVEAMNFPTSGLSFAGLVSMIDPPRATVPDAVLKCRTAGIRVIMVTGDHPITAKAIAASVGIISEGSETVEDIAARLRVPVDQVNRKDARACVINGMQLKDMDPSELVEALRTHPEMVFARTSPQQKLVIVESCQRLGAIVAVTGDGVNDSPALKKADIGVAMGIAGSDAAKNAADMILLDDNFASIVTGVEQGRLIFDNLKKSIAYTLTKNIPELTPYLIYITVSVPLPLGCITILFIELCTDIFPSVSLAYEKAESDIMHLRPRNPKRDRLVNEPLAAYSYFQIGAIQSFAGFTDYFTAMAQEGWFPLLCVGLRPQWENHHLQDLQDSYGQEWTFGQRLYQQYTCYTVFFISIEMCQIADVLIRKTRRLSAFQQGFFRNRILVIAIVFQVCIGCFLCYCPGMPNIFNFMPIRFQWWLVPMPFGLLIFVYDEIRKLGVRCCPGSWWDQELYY
T1 sequence (P18434 whole entry partner): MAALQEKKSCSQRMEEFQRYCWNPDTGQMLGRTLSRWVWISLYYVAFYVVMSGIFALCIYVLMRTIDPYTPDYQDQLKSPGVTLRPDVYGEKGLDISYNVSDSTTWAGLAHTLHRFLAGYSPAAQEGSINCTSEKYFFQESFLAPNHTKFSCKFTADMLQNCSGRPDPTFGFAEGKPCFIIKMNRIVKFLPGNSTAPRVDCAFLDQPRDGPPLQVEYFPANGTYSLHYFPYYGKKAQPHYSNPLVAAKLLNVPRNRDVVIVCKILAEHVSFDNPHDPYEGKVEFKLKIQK

Regarding `COCCOc1ccnc(C[S+]([O-])c2nc3cc(OC)ccc3[nH]2)c1C` (centres unmarked) [No. 12], the IC50 (in general, the concentration at which inhibition is half-maximal) on H^+ --K^+ ATPase is 5.6 µM.
Same read-out and setting: the value for `CCOCCOc1ccnc(C[S+]([O-])c2nc3ccccc3[nH]2)c1C` (centres unmarked) [No. 6] was 2.8 µM.
Still for that read-out and setting: next, `CCCCOCCOc1ccnc(C[S+]([O-])c2nc3cc(Cl)ccc3[nH]2)c1C` (centres unmarked) [No. 2]: 1.8 µM; `CCCCOCCOc1ccnc(C[S+]([O-])c2nc3cc(OC)ccc3[nH]2)c1C` (centres unmarked) [No. 5]: 3 µM.
The same measure, in the same setting: the value for `COCCOc1ccnc(C[S+]([O-])c2nc3ccccc3[nH]2)c1C` (centres unmarked) [No. 10] was 3.3 µM.
`COCCOc1ccnc(C[S+]([O-])c2nc3cc(C(F)(F)F)ccc3[nH]2)c1C` (centres unmarked) [No. 11]: the IC50 at H^+ --K^+ ATPase amounted to 1.7 µM.
Turning to `CCCCOCCOc1ccnc(C[S+]([O-])c2nc3cc(C)c(C)cc3[nH]2)c1C` (centres unmarked) [No. 4], the IC50 on H^+ --K^+ ATPase was 2.2 µM.
On the same count and under the same terms, the value for `CCOCCOc1ccnc(C[S+]([O-])c2nc3cc(OC)ccc3[nH]2)c1C` (centres unmarked) [No. 9] was 3.4 µM.
As for `CN/C(=N/CCSCc1nc[nH]c1C)NC#N` [cimetidine], the side effects result in series [1] is reported as “antiandrogenic action or a metabolic enzymatic activity inhibitory action upon liver”.
Consider `CCCCOCCOc1ccnc(C[S+]([O-])c2nc3ccccc3[nH]2)c1C` (centres unmarked), for which the IC50 on H^+ --K^+ ATPase was determined as 1.8 µM.
Still for that read-out and setting: the value for `CCCCOCCOc1ccnc(C[S+]([O-])c2nc3cc(C(F)(F)F)ccc3[nH]2)c1C` (centres unmarked) [No. 3] was 1.1 µM.
